What was measured:
[1] = tested on: vascular lesion in the right middle frontal gyrus; details: general comparison statement in Example 14, no own test described; cited from earlier work
[2] = tested on: vascular lesion in the right middle frontal gyrus; experiment: Intraoperative NIR fluorescence imaging of tozuleristide during resection of a vascular lesion (arteriovenous or cavernous malformation); assay type: in vivo, human; details: for Fluorescence of surrounding tissue, normal brain tissue and normal vasculature / Fluorescence of the abnormal vascular tissue / vascular lesion: pediatric subject, 22 mg (15 mg/m^2) IV approximately 5-6 hours before surgery, NIR fluorescence; for Fluorescence of the abnormal vascular tissue / vascular lesion: in situ
Method: This example describes use of the imaging system and/or methods disclosed herein for coaxial illumination and visualization of tozuleristide fluorescence during surgical resection of an arteriovenous malformation or cavernous malformation in a pediatric patient. The imaging system of the present invention was used to image brain tissue to detect abnormal vasculature using fluorescence imaging. Surgery was performed to remove the abnormality from the subject.
A pediatric subject with a history of anosmia was found on MRI to have a 3.5 cm T1-hypointense, T2/FLAIR-hyperintense mass in the right middle frontal gyrus with a central enhancing nodule, initially diagnosed pre-operatively to be a low-grade glioma. […] The patient received 22 mg (15 mg/M^2) of tozuleristide via IV injection approximately 5-6 hours before surgery and image collection. The imaging system head was attached to the Zeiss Pentero surgical microscope along with two eyepieces prior the start of surgery.
After the lesion was exposed, the imaging system was initialized and used continuously. The imaging system enabled the surgeon to view fluorescence and visible imaging together and simultaneously with the operating microscope. A microsurgical resection was performed through a right frontal craniotomy. […] The abnormal tissue was completely resected. The patient recovered without deficit. Pathology confirmed the absence of tumor.
Video was captured for the duration of the resection, and still images were captured of the exposed lesion. […] FIGS. 18 and 19 show images taken from the vascular lesion with the near-infrared (NIR) fluorescence images of the vascular lesion using the imaging system. […] In the overlay image, the normal brain tissue and normal blood vessels appeared pink or light tan to red, as it does under normal visible light or white light. The surgeon noted that only the abnormal vascular tissue appeared fluorescent.

[3] = tested on: cerebral cavernous malformation in the left cerebellar hemisphere; experiment: Intraoperative NIR fluorescence imaging of tozuleristide during cavernous malformation resection; assay type: in vivo, human; details: pediatric patient; 15 mg/m2 IV on the morning of surgery
Method: This example describes use of the compounds and methods disclosed herein for coaxial illumination and visualization of tozuleristide fluorescence during surgical resection of a cavernous malformation in a pediatric patient. An imaging system was used to image brain tissue to detect abnormal vasculature using fluorescence imaging. Surgery was performed to remove the abnormality from the subject.
The patient received 15 mg/m2 of a fluorescent conjugate comprising SEQ ID NO: 1 conjugated to an ICG (tozuleristide, also referred to herein as Compound 76) via IV injection on the morning of surgery and image collection. The imaging system head was attached to the Zeiss Pentero surgical microscope along with two eyepieces prior the start of surgery.
After the lesion was exposed, the imaging system was initialized and used continuously. The imaging system enabled the surgeon to view fluorescence and visible imaging together and simultaneously with the operating microscope. A microsurgical resection was performed through a left retroaricular craniotomy with frameless stereotactic navigation and intraoperative ultrasonography. A round mulberry appearing vascular lesion that contained areas of thrombosed vessels and firm calcifications was encountered. […] The lesion was removed. […]

[4] = tested on: Grade 4 Atypical Teratoid Rhabdoid Tumor (ATRT) in the posterior fossa/brain stem; experiment: Intraoperative NIR fluorescence imaging of tozuleristide during pediatric brain tumor resection; assay type: in vivo, human; details: Subject T613, 15 mg/m2 IV bolus about 13.5 hours prior to surgery
Method: This example describes use of the imaging system and/or method disclosed herein for coaxial illumination and visualization of tozuleristide fluorescence during surgical resection of a pediatric brain tumor. The imaging system of the present invention was used to image brain tissue to detect a cancer using fluorescence imaging. Surgery was performed to remove cancer from the subject.
Subject T613 was diagnosed with a Grade 4 Atypical Teratoid Rhabdoid Tumor (ATRT) in the posterior fossa/brain stem. Tozuleristide which is a peptide-fluorophore detectable agent (15 mg/m2 dose), was given by intravenous (IV) bolus injection about 13.5 hours prior to the start of surgery. The imaging head was attached to the Zeiss Pentero surgical microscope along with two eyepieces prior the start of surgery.
After the tumor was exposed, the imaging system was initialized and used continuously. The imaging system enabled the surgeon to view fluorescence and visible imaging together and simultaneously with the operating microscope. […] Moreover, there was no need to reposition the operating microscope to view the fluorescence and visible images thus providing imaging of the surgical area together with the fluorescence imaging system during the operation, which decreased disruption to the surgical workflow.
Video was captured for the duration of the tumor resection, and still images were captured of the exposed tumor. […] FIGS. 15A-15F show images taken from the tumor resection with the near-infrared (NIR) fluorescence images of the tumor using the imaging system (FIGS. 15B and 15E) and the overlay image with the NIR fluorescence overlaid with the white light or visible light spectrum illumination (FIGS. 15C and 15F). […] In the overlay image, the normal brain tissue appeared red, as it does under normal visible light or white light as shown the visible light images of the tumor (FIGS. 15A and 15D). The surgeon noted that only tumor tissue appeared fluorescent.

| Molecule | Behaviour of ICG alone after injection (comparison statement) [1] | Time after injection during which diseased tissue can be highlighted ([2]; general statement in Example 14, fluorescence dependent on pathological tissue binding and uptake) | Fluorescence of surrounding tissue, normal brain tissue and normal vasculature [2] | Fluorescence of the abnormal vascular tissue / vascular lesion [2] | Fluorescence of the abnormal vascular tissue / vascular lesion ([2]; listed as Tozuleristide) | Fluorescence of the abnormal vascular tissue / vascular lesion ([2]; listed as toluzeristide) | Fluorescence of surrounding tissue, normal brain tissue and normal vasculature ([2]; listed as Tozuleristide) | Fluorescence of surrounding tissue, normal brain tissue and normal vasculature ([2]; listed as toluzeristide) | Fluorescence of the cavernous malformation lesion [3] | Fluorescence of the surrounding cerebellum [3] | Surgeon-noted distinction between tumor and normal tissue with NIR fluorescence [4] | Background fluorescence in non-tumor or normal brain tissue ([4]; NIR fluorescence image) | Tozuleristide fluorescence in the exposed tumor ([4]; NIR fluorescence, in situ) |
| --- | --- | --- | --- | --- | --- | --- | --- | --- | --- | --- | --- | --- | --- |
| CC1(C)C(/C=C/C=C/C=C/C=C2\N(CCCCS(=O)(=O)O)c3ccc4ccccc4c3C2(C)C)=[N+](CCCCS(=O)(=O)[O-])c2ccc3ccccc3c21 [ICG, indocyanine green] | transiently lights up blood vessels immediately after injection | – | – | – | – | – | – | – | – | – | – | – | – |
| tozuleristide | – | up to 30 hours | non-fluorescent | indicative of the presence of tozuleristide in the vascular lesion | observed in situ in the exposed vascular lesion | fluoresced avidly | no discernable background fluorescence | no fluorescence | fluoresced avidly | did not fluoresce | very good distinction between tumor and normal tissue fluorescence | no discernable background fluorescence | observed in situ in the exposed tumor |

— patent US20220346650A1, “SYSTEMS AND METHODS FOR VASCULAR AND STRUCTURAL IMAGING” (priority 2019, published 2022)
